Test results reported in US20060035901A1, “Methotrexate derivatives useful for treating cancer and arthritis” (Serenex, Inc., priority 2004, published 2006).
pIC50: −log10 of the molar value.

How the values were obtained:
Her2 = Her2 (Homo sapiens, UniProt P04626); assay: Elution of Her2 from ATP-Sepharose column by compound (Proteome Mining), IC50 estimate; assay type: binding; details: estimated from percent of protein eluted from ATP-Sepharose column, gel densitometry; read-out: Approximate IC50 for Her2
Procedure: A proteome containing a known quantity of Her2, EGFR, and B-Raf was run over an ATP-Sepharose™ column in order to bind all purine-binding proteins. […] The ATP-Sepharose™ was washed several times, and then eluted with the compound of Formula III. The experiment was run in duplicate at concentrations of 20 μM, 100 μM, and 500 μM of the compound of Formula III. The eluted fractions were run on a 1-dimensional SDS polyacrylamide gel. Gels were stained with a fluorescent stain such as sypro ruby (a highly sensitive fluorescent protein stain that can readily detect less than 1 fmol of total protein, i.e., less than 0.04 ng for a 40 kDa protein). The gels were imaged using a standard flat bed gel imager and the amount of protein estimated by densiometry. The percent of protein eluted from the column at each concentration was determined and IC50 values were calculated from these estimates. Where necessary, the eluted proteins were cut out of the gel, and identified using mass spectral techniques.

[1] = target: T1, pyruvate carboxylase (PYC) (Sus scrofa, UniProt A0A8W4F6F0); assay: Elution of PYC from ATP-Sepharose column loaded with porcine liver proteome, IC50 estimate; assay type: binding; details: estimated from percent of protein eluted from ATP-Sepharose column, read-out: Approximate IC50 for PYC
T1 construct: a porcine liver proteome was run over an ATP-Sepharose™ column; from tissue; host or cells: porcine liver
T1 sequence (A0A8W4F6F0 1-1157): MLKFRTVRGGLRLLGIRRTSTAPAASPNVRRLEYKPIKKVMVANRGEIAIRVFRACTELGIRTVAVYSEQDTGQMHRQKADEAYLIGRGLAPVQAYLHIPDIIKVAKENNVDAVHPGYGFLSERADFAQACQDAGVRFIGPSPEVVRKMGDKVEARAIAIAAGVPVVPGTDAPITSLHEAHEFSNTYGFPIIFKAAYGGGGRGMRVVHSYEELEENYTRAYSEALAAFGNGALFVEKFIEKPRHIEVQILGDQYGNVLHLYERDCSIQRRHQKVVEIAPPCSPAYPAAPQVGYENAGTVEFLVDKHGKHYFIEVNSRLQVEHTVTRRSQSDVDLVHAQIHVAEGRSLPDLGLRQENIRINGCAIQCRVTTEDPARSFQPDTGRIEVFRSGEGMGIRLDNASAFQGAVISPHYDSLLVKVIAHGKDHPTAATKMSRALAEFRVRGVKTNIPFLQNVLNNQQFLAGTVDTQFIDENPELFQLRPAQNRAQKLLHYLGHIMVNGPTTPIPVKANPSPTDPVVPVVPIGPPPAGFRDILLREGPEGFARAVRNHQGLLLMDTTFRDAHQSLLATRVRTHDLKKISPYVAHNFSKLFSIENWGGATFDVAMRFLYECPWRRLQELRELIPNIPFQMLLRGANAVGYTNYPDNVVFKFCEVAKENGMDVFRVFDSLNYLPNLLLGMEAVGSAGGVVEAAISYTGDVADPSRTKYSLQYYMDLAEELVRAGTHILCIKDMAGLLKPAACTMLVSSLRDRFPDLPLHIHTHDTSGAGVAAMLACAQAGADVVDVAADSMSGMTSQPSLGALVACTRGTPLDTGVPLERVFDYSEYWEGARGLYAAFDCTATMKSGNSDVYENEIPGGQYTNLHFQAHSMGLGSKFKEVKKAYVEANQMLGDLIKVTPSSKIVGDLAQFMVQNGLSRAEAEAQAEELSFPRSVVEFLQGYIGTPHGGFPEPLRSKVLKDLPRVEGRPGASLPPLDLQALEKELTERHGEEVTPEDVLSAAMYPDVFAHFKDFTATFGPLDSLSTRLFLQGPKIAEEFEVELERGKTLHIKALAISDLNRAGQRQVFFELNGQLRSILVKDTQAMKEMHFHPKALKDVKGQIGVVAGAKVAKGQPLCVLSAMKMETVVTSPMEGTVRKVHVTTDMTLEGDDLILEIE
Procedure: Similar experiments were carried out to compare the IC50 values for PYC, PCCA, and PCCB. In these trials, a porcine liver proteome was run over an ATP-Sepharose™ column to bind all purine-binding proteins. The ATP-Sepharose™ column was washed several times, and then eluted with the compound of Formula III at concentrations of 1 μM, 5 μM, 10 μM, 50 μM, 100 μM, and 500 μM to identify proteins that bound to this compound. (The amount of protein eluted at the higher concentration ranges plateaued, thus confirming that the entire fraction of bound protein had been eluted.) The eluted fractions were run on a 1-dimensional SDS polyacrylamide gel.
(§1) Gels were stained with a fluorescent stain such as sypro ruby (a highly sensitive fluorescent protein stain that can readily detect less than 1 fmol of total protein, i.e., less than 0.04 ng for a 40 kDa protein). The gels were imaged using a standard flat bed gel imager and the amount of protein estimated by densiometry. The percent of protein eluted from the column at each concentration was determined and IC50 values were calculated from these estimates. Where necessary, the eluted proteins were cut out of the gel, and identified using mass spectral techniques.
These steps were repeated with each of the compounds of Formulas IV-X, MTX, and the c series derivative. The values obtained were then compared to those for DHFR.

[2] = target: T2, propionyl-CoA carboxylase subunit alpha (PCCA) (Sus scrofa, UniProt P0DTA4); assay: Elution of PCCA from ATP-Sepharose column loaded with porcine liver proteome, IC50 estimate; assay type: binding; details: estimated from percent of protein eluted from ATP-Sepharose column, read-out: Approximate IC50 for PCCA
T2 construct: a porcine liver proteome was run over an ATP-Sepharose™ column; from tissue; host or cells: porcine liver
T2 sequence (P0DTA4 53-730): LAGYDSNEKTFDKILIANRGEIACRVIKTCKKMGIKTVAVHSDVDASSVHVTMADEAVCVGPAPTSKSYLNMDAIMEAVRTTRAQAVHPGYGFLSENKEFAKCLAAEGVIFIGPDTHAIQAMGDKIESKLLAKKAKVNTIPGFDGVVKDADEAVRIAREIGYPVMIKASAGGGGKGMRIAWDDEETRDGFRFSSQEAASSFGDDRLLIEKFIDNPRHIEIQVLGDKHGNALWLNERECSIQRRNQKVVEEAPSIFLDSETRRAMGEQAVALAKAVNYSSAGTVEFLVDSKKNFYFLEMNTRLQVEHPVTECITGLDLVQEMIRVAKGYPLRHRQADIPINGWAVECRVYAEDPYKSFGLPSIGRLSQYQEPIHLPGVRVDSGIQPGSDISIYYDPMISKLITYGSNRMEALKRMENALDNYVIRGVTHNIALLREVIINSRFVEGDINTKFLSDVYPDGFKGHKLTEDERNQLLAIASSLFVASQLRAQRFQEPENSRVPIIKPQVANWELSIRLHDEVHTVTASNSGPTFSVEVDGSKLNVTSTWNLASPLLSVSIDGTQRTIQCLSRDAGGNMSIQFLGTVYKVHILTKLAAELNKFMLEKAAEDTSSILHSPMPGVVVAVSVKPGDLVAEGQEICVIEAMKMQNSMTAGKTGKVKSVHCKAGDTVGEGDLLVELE
T2 sequence (P79384 29-539 partner): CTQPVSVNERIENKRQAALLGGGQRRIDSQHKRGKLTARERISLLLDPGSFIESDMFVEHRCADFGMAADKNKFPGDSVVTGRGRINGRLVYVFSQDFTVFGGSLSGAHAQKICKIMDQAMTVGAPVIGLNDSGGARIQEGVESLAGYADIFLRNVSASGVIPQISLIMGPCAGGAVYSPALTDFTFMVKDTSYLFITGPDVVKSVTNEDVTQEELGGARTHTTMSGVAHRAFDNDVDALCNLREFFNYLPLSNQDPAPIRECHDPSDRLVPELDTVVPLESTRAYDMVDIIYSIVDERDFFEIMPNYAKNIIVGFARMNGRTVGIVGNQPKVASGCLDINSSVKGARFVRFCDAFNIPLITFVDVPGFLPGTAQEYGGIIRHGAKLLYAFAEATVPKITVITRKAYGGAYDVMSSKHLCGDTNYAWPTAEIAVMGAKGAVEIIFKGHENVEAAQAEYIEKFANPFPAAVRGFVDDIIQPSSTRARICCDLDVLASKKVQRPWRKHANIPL
Procedure: (§2) Similar experiments were carried out to compare the IC50 values for PYC, PCCA, and PCCB. In these trials, a porcine liver proteome was run over an ATP-Sepharose™ column to bind all purine-binding proteins. The ATP-Sepharose™ column was washed several times, and then eluted with the compound of Formula III at concentrations of 1 μM, 5 μM, 10 μM, 50 μM, 100 μM, and 500 μM to identify proteins that bound to this compound.
as §1
(§3) The values obtained were then compared to those for DHFR.

[3] = target: T3, propionyl-CoA carboxylase subunit beta (PCCB) (Sus scrofa, UniProt P79384); assay: Elution of PCCB from ATP-Sepharose column loaded with porcine liver proteome, IC50 estimate; assay type: binding; details: estimated from percent of protein eluted from ATP-Sepharose column, read-out: Approximate IC50 for PCCB
T3 construct: a porcine liver proteome was run over an ATP-Sepharose™ column; from tissue; host or cells: porcine liver
T3 sequence (P79384 29-539): T2 sequence (P79384 29-539 partner)
T3 sequence (P0DTA4 53-730 partner): T2 sequence (P0DTA4 53-730)
Procedure: as §2, §1, §3

DHFR = target: T4, DHFR (Homo sapiens, UniProt P00374); assay: DHFR enzymatic assay; assay type: biochemical; details: determined by enzymatic assay
T4 sequence (P00374 1-187): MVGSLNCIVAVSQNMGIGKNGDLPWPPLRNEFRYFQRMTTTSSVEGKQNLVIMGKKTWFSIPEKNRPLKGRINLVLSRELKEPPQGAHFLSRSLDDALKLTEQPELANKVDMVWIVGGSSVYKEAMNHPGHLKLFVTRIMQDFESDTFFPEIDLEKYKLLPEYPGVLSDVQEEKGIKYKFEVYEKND

EGFR = EGFR (Homo sapiens, UniProt P00533); assay: Elution of EGFR from ATP-Sepharose column by compound (Proteome Mining), IC50 estimate; assay type: binding; details: estimated from percent of protein eluted from ATP-Sepharose column, gel densitometry; read-out: Approximate IC50 for EGFR
Procedure: (§4) A proteome containing a known quantity of Her2, EGFR, and B-Raf was run over an ATP-Sepharose™ column in order to bind all purine-binding proteins. See, WO 00/63694 and U.S. Provisional Application No. 60/453,697 filed Jan. 22, 2003, each of which is incorporated by reference in its entirety. The ATP-Sepharose™ was washed several times, and then eluted with the compound of Formula III. The experiment was run in duplicate at concentrations of 20 μM, 100 μM, and 500 μM of the compound of Formula III. The eluted fractions were run on a 1-dimensional SDS polyacrylamide gel. Gels were stained with a fluorescent stain such as sypro ruby (a highly sensitive fluorescent protein stain that can readily detect less than 1 fmol of total protein, i.e., less than 0.04 ng for a 40 kDa protein). The gels were imaged using a standard flat bed gel imager and the amount of protein estimated by densiometry. The percent of protein eluted from the column at each concentration was determined and IC50 values were calculated from these estimates. Where necessary, the eluted proteins were cut out of the gel, and identified using mass spectral techniques.
(§5) These steps were repeated with each of the compounds of Formulas IV-X, MTX, and the c series derivative.

B-Raf = B-Raf (Homo sapiens, UniProt P15056); assay: Elution of B-Raf from ATP-Sepharose column by compound (Proteome Mining), IC50 estimate; assay type: binding; details: estimated from percent of protein eluted from ATP-Sepharose column, gel densitometry; read-out: Approximate IC50 for B-Raf
Procedure: as §4, §5

Chain of EGFR (P00533 25-1210, species assumed): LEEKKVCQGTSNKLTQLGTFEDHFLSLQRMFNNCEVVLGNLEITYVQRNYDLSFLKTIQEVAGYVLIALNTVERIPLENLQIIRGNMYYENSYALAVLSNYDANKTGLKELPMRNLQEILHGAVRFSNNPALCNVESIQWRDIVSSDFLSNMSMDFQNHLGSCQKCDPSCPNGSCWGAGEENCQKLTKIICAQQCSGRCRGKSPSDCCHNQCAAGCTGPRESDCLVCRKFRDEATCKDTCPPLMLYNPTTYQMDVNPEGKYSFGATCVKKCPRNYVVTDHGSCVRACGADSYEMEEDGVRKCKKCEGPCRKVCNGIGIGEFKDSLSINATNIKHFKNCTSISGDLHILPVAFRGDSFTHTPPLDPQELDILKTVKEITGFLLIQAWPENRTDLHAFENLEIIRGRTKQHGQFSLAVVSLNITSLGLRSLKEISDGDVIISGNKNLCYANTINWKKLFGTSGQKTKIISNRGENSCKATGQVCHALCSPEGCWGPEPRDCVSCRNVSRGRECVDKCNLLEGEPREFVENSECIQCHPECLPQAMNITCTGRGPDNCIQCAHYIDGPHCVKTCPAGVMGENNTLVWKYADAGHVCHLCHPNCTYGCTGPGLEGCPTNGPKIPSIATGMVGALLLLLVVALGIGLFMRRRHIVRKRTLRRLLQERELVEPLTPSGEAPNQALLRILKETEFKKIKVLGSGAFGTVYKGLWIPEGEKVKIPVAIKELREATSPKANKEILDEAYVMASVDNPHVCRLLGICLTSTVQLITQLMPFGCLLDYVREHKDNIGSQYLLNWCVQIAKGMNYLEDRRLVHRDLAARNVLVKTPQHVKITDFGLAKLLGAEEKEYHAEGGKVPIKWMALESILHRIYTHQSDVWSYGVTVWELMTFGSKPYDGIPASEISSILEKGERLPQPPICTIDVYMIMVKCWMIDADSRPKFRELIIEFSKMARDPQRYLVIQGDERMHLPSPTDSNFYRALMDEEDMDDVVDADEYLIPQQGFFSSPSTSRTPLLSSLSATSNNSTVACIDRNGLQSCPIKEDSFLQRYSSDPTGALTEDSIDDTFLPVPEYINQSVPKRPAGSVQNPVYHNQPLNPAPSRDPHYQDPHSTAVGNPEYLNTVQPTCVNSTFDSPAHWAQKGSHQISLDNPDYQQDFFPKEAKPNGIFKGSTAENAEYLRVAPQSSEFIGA
Chain of Her2 (P04626 23-1255, species assumed): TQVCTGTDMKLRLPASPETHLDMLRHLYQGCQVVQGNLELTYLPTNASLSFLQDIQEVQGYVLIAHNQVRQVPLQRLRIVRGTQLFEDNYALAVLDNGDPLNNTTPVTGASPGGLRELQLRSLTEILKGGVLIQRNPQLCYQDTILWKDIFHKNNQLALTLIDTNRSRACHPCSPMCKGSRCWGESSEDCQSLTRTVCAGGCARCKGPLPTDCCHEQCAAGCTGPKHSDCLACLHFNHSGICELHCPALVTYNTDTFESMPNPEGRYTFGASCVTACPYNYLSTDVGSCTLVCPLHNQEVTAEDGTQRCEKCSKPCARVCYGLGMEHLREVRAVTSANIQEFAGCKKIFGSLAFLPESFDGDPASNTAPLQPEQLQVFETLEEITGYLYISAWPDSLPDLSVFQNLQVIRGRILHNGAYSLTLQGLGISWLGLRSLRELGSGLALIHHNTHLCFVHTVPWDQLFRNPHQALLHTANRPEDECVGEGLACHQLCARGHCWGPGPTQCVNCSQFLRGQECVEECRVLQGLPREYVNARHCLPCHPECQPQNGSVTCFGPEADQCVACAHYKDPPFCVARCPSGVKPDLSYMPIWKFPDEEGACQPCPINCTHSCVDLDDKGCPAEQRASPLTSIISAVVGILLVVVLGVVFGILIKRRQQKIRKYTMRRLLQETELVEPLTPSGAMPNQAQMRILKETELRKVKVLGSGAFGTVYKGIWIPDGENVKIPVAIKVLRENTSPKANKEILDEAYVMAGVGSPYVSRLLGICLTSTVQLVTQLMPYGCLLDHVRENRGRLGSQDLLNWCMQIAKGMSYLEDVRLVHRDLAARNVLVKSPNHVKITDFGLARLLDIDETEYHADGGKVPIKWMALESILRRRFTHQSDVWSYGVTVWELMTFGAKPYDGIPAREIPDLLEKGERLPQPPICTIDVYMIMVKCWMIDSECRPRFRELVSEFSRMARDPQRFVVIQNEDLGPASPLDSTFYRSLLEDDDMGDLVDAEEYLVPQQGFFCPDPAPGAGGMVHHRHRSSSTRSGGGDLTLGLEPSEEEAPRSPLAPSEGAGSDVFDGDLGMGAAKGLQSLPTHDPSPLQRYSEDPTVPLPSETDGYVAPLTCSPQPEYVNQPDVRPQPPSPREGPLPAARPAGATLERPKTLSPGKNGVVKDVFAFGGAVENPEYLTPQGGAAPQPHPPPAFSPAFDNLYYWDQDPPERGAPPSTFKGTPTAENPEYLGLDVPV
Chain of B-Raf (P15056 whole entry, species assumed): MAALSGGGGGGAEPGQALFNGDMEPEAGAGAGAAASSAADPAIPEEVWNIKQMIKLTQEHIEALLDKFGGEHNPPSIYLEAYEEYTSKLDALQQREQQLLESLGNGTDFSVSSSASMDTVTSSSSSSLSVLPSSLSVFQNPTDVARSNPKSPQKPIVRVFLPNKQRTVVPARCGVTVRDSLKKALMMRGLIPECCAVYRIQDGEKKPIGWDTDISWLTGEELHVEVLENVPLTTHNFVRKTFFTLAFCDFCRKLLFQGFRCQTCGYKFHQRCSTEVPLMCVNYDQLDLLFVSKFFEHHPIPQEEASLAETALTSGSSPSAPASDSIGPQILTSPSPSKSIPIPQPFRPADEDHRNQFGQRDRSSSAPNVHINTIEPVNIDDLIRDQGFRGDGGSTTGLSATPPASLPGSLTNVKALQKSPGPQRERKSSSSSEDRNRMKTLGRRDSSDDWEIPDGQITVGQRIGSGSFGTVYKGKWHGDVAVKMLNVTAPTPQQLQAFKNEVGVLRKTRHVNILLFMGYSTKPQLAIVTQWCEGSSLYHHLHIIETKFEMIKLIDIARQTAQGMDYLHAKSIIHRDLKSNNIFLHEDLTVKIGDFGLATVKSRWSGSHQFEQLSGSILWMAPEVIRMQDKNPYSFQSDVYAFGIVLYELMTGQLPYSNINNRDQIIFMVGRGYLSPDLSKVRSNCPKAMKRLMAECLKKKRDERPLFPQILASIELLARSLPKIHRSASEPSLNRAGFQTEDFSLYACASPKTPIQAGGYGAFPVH

| SMILES | pIC50 (Her2) | pIC50 [1] | pIC50 [2] | pIC50 [3] | pIC50 (DHFR) | pIC50 (EGFR) | pIC50 (B-Raf) |
| --- | --- | --- | --- | --- | --- | --- | --- |
| CC(C)(C)CN(Cc1cnc2nc(N)nc(N)c2n1)c1ccc(C(=O)NC(CCC(=O)O)C(=O)O)cc1 (stereo not drawn) [Formula X] | – | 5.36 | 5.60 | 5.40 | 7.80 | – | – |
| Cc1cc(C(=O)NC(CCC(=O)O)C(=O)O)ccc1N(Cc1cnc2nc(N)nc(N)c2n1)CC(C)(C)C (stereo not drawn) [Formula IV] | – | 5.30 | 5.22 | 5.00 | 7.77 | – | – |

Stronger by pIC50 [1], values ahead:

| pIC50 (Her2) | pIC50 [1] | pIC50 [2] | pIC50 [3] | pIC50 (DHFR) | pIC50 (EGFR) | pIC50 (B-Raf) | SMILES |
| --- | --- | --- | --- | --- | --- | --- | --- |
| 5.30 | 5.40 | 5.70 | 5.46 | – | – | – | Cc1cc(C(=O)NC(CCC(=O)O)C(=O)O)ccc1N(Cc1cnc2nc(N)nc(N)c2n1)CC1CC1 (stereo not drawn) [Formula V] |
| – | 6.30 | 6.00 | 6.00 | – | – | – | CC(C)=CCN(Cc1cnc2nc(N)nc(N)c2n1)c1ccc(C(=O)NC(CCC(=O)O)C(=O)O)cc1C (stereo not drawn) [Formula VI] |
| – | 6.46 | – | – | – | < 4.82 | ≤ 5.00 | CN(Cc1cnc2nc(N)nc(N)c2n1)c1ccc(C(=O)N[C@@H](CCC(=O)O)C(=O)O)cc1 [MTX, N-[4-[[(2,4-diamino-6-pteridinyl)methyl]methylamino]benzoyl]-L-glutamic acid, reference compound] |
